Measured values taken from PubChem BioAssay (NCI).
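GI50 is the concentration that inhibits growth by half. The concentration for full growth arrest is given as TGI.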

Experiments:
Assay in all cases: NCI-60 cell line screen, 384-well format
[1] = tested on: 786-0 renal
[2] = tested on: A498 renal
[3] = tested on: A549 NSCLC
[4] = tested on: CAKI-1 renal
[5] = tested on: CCRF-CEM leukemia
[6] = tested on: COLO 205 colon
[7] = tested on: DU-145 prostate
[8] = tested on: EKVX NSCLC
[9] = tested on: HCC-2998 colon
[10] = tested on: HCT-15 colon
[11] = tested on: HOP-62 NSCLC
[12] = tested on: HOP-92 NSCLC
[13] = tested on: HS 578T breast
[14] = tested on: HT29 colon
[15] = tested on: IGROV1 ovarian
[16] = tested on: K-562 leukemia
[17] = tested on: KM12 colon
[18] = tested on: LOX IMVI melanoma
[19] = tested on: M14 melanoma
[20] = tested on: MALME-3M melanoma
[21] = tested on: MDA-MB-231 breast
[22] = tested on: MDA-MB-435 melanoma
[23] = tested on: MDA-MB-468 breast
[24] = tested on: MOLT-4 leukemia
[25] = tested on: NCI-H226 lung
[26] = tested on: NCI-H322M lung
[27] = tested on: NCI-H522 lung
[28] = tested on: NCI/ADR-RES ovarian
[29] = tested on: OVCAR-3 ovarian
[30] = tested on: OVCAR-4 ovarian
[31] = tested on: OVCAR-5 ovarian
[32] = tested on: OVCAR-8 ovarian
[33] = tested on: PC-3 prostate
[34] = tested on: RPMI-8226 leukemia
[35] = tested on: SF-268 CNS
[36] = tested on: SK-MEL-2 melanoma
[37] = tested on: SK-MEL-28 melanoma
[38] = tested on: SK-MEL-5 melanoma
[39] = tested on: SK-OV-3 ovarian
[40] = tested on: SNB-19 CNS
[41] = tested on: SR leukemia
[42] = tested on: SW-620 colon
[43] = tested on: T-47D breast
[44] = tested on: U251 glioblastoma
[45] = tested on: UACC-257 melanoma
[46] = tested on: UACC-62 melanoma
[47] = tested on: UO-31 renal

For CCc1c(C#N)c(SC(C(N)=O)c2ccccc2)nc(N2CCC(N)CC2)c1C#N (centres undefined), the GI50 [1] was 11.7 µM, the TGI [1] was 24 µM and the GI50 [2] was 12.9 µM. The TGI [2] was 25.6 µM, the GI50 [3] was 14.4 µM and the TGI [3] was 27.7 µM. The GI50 [4] was 13 µM, the TGI [4] was 25.8 µM and the GI50 [5] was 6.52 µM. It also gave a TGI [5] of 19 µM, a GI50 [6] of 3.42 µM and a TGI [6] of 17.4 µM. The GI50 [7] was 3.33 µM, the TGI [7] was 12.4 µM and the GI50 [8] was 15.4 µM. For the same compound, the TGI [8] was 28.8 µM, the GI50 [9] was 8.72 µM and the TGI [9] was 20.9 µM. The GI50 [10] was 17.3 µM, the TGI [10] was 31.3 µM and the GI50 [11] was 4.92 µM. The TGI [11] was 16.3 µM, the GI50 [12] was 13 µM and the TGI [12] was 25.7 µM. It also gave a GI50 [13] of 14.4 µM, a TGI [13] of 27.6 µM and a GI50 [14] of 16.9 µM. It also gave a TGI [14] of 30.7 µM, a GI50 [15] of 15 µM and a TGI [15] of 28.3 µM. It also gave a GI50 [16] of 5.63 µM, a TGI [16] of 18.3 µM and a GI50 [17] of 11.2 µM. The TGI [17] was 23.4 µM, the GI50 [18] was 11.4 µM and the TGI [18] was 23.7 µM. It also gave a GI50 [19] of 10.4 µM, a TGI [19] of 22.2 µM and a GI50 [20] of 4.17 µM. It also gave a TGI [20] of 16.9 µM, a GI50 [21] of 16.2 µM and a TGI [21] of 29.8 µM. It also gave a GI50 [22] of 16.8 µM, a TGI [22] of 30.5 µM and a GI50 [23] of 8.13 µM. The TGI [23] was 20.4 µM, the GI50 [24] was 4.95 µM and the TGI [24] was 15.4 µM. For the same compound, the GI50 [25] was 12.4 µM, the TGI [25] was 25 µM and the GI50 [26] was 15.9 µM. It also gave a TGI [26] of 29.4 µM, a GI50 [27] of 8.33 µM and a TGI [27] of 20.9 µM. The GI50 [28] was 66.6 µM, the TGI [28] was greater than 100 µM and the GI50 [29] was 0.44 µM. The TGI [29] was 6.5 µM, the GI50 [30] was 13.7 µM and the TGI [30] was 26.6 µM. For the same compound, the GI50 [31] was 16.1 µM, the TGI [31] was 29.6 µM and the GI50 [32] was 15.6 µM. For the same compound, the TGI [32] was 29.1 µM, the GI50 [33] was 11.2 µM and the TGI [33] was 23.4 µM. It also gave a GI50 [34] of 0.201 µM, a TGI [34] of 1.38 µM and a GI50 [35] of 13.5 µM. For the same compound, the TGI [35] was 26.4 µM, the GI50 [36] was 12 µM and the TGI [36] was 24.4 µM. For the same compound, the GI50 [37] was 7.46 µM, the TGI [37] was 20.1 µM and the GI50 [38] was 11 µM. The TGI [38] was 23 µM, the GI50 [39] was 17.9 µM and the TGI [39] was 31.9 µM. It also gave a GI50 [40] of 13.9 µM, a TGI [40] of 27 µM and a GI50 [41] of 3.45 µM. It also gave a TGI [41] of 11.8 µM, a GI50 [42] of 14.7 µM and a TGI [42] of 28.1 µM. The GI50 [43] was 14.8 µM, the TGI [43] was 28 µM and the GI50 [44] was 12.5 µM. For the same compound, the TGI [44] was 25.1 µM, the GI50 [45] was 2.22 µM and the TGI [45] was 5.18 µM. The GI50 [46] was 6.36 µM, the TGI [46] was 19.7 µM and the GI50 [47] was 18.1 µM. It also gave a TGI [47] of 33 µM.
